The source of these data is article PMC10488391, “Membrane-Targeting Perylenylethynylphenols Inactivate Medically Important Coronaviruses via the Singlet Oxygen Photogeneration Mechanism” (Molecules, 2023).

SMILES strings stand for the structures. Read-outs that look alike come from different tables or passages of the source.

The test system of data set [1] is SARS-CoV-2. Description: Virucidal (virus-inactivating) activity, plaque assay. It counts as cell-based. Particulars: 10 µM; 120 min pre-incubation in the dark; starting titers 10^4, 10^6 and 10^7 PFU/mL.
A short description of data set [2]: Singlet oxygen generation quantum yield (SOSG fluorescence). Particulars: in methanol, illumination 430–450 nm, 5.5 mW/cm^2, reference PS C1T11. It counts as physicochemical. On the procedure: The ROS generation rate was estimated using the spectrofluorimetric method, based on the fluorescense changes of Singlet Oxigen Sensor Green (SOSG®, Lumiprobe, Cockeysville, MD, USA) in methanol solution. Oxidation of SOSG by singlet oxygen results in peroxide formation enhancing SOSG fluorescence.
Spectrophotometric measurements were performed in a Qpod 2e thermostated cuvette holder (Quantum Northwest, Liberty Lake, WA, USA) at 25 °C and with magnetic stirring (500 rpm). Absorption spectra were recorded using a MayaPro spectrophotometer (Ocean Optics, Orlando, FL, USA) and a stabilized white light source with a SLS201L tungsten lamp (Thorlabs, Newton, NJ, USA). The fluorescence of SOSG was measured with a Flame CCD spectrometer (Ocean Optics, Orlando, FL, USA) in StripChart mode (530 nm), excitation of the SOSG fluorescence was carried out with a PLS-510 LED laser (InTop, St. Petersburg, Russia) in CW mode at the wavelength of 510 nm.
To study photosensitized ^1O2 generation, we used a white MCWHLP1 LED (Thorlabs, USA) with filters to limit the radiation to the 430–450 nm range (5.5 mW/cm^2). Illumination was uniform over the entire volume of the cuvette, to prevent artifacts associated with the diffusion of non-reacted components from entering into the illuminated volume of the cuvette. Illumination was performed in pulsed mode, with 1 s of illumination followed by 5 s of dark adaptation, during which the fluorescence spectrum of the photosensitizer-SOSG solution was recorded.
Singlet oxygen generation quantum yield for compounds 3a–3f in methanol was calculated according to Equation (1):(1) φΔ=φΔ0∗r/r^0(1−10^−A^0)/(1−10^−A), where r is the rate of SOSG fluorescence increase in solution of the photosensitizer (PS), A is the PS absorbance in the region of illumination, and index 0 represents reference PS (we used perylene compound C1T11 [65] with φΔ0=0.59 in methanol).

Data set [3] concerns FIPV. Kind of data set: Photodynamic inactivation of FIPV virions. It counts as cell-based, feline infectious peritonitis virus. On the procedure: Considering that perylenylethynylphenols are potent ^1O2 photogenerators, we investigated their coronavirus inactivation activity after the irradiation of compound-pretreated FIPV with blue light (465–480 nm, with an approximate power density of 30 mW/cm^2; note: the 465–480 nm wavelength is close to the excitation maxima of perylenylethynylphenols). In this experiment, (i) compound 3a and the virus were mixed in daylight and irradiated with blue light for 10 min (Figure 7D, top panel), or (ii) the compound and virus were mixed in daylight and incubated in the dark for 10 min (Figure 7D, medium panel). Then, both samples (irradiated and non-irradiated) were incubated for 1 h at 37 °C in the dark, and the viability of FIPV was determined by a plaque assay. […] We speculate that the observed enhancement of antiviral (virus inactivation) activity of 3a is due to increased ^1O2 photogeneration during sample irradiation.
To completely eliminate the influence of daylight on the anti-FIPV activity of perylenylethynylphenols, we performed a parallel experiment in a dark room. In this experiment, all manipulations, including sample preparation and plaque assays, were performed under red light (624 ± 20 nm) (Figure 7D, bottom panel).
Virus in DMEM (titer of 10^6 PFU/mL) was mixed with 3a (0–10 µM) in a microtiter plate in daylight and irradiated for 10 min at RT with LEDs (465–480 nm) at an approximate power density of 30 mW/cm^2 (Figure 7D, top panel). As a negative control, the virus was mixed with 3a (0–10 µM) in daylight and incubated with the compound for 10 min in the dark at RT (Figure 7D, middle panel). Subsequently, both irradiated and non-irradiated virus samples were incubated in the dark at 37 °C for an additional 60 min. Viral titers were determined by plaque assays (also in daylight). […] The virus sample was mixed with 3a (0–10 µM), incubated at 37 °C for 60 min, and the viability of the virus was assessed by plaque assays (Figure 7D, bottom panel). […]

The subject of data set [4] is SARS-CoV-2. Kind of data set: Virus titer reduction assay. It counts as cell-based. Particulars: for SI: SARS-CoV-2 EC50 and Vero cells CC50; for EC50: Severe acute respiratory syndrome coronavirus 2.
Data set [5] can be described thus: Cytotoxicity assay (Cell Counting Kit-8). It is filed as cell-based. The following applies: African green monkey, Vero cells, confluent monolayer; 48 h at 37 °C in the dark; compounds 0–10 µM. On the procedure:
Vero cells were cultured for 24 h in 96-well plates to form a confluent monolayer, and then were treated with the tested compounds at concentrations of 0–10 µM. After 48 h of cultivation in the dark at 37 °C under 5% CO2, the cell culture medium was aspirated. The potential cytotoxicity of the tested derivatives was determined based on cell viability using Cell Counting Kit-8 (Dojindo Molecular Technologies, Munich, Germany) according to the manufacturer’s instructions (Figure 5A).
(Tetrazolium dyes change colour on reduction, which living cells bring about.)

The nature of data set [6]: Interaction with liposomes (steady-state fluorescence). It counts as physicochemical. Particulars: 10 µM in PBS; 520 nm; after the complete incubation period (3500 s). On the procedure:
The affinity of 3a to lipid membranes was further confirmed using a liposomal (protein-free) membrane model system (Figure 6D,E). […] The kinetics of liposome penetration of 3a were measured as the steady-state fluorescence response at 520 nm, which reached maximal intensity of about 4 × 10^5 CPE after the complete incubation period (3500 s) (Figure 6E).
The samples’ steady-state fluorescence characteristics were measured in L-format using a Chronos DFD Fluorescence spectrometer (ISS, Baltimore, MD, USA) equipped with a 300 W Cermax xenon arc lamp (ISS, Baltimore, MD, USA), a concave holographic grating monochromator, and a PMT detector. The required amount of each sample was diluted in DMSO and measured in a 1-cm quartz cuvette, at a constant temperature of 25 °C. The resulting data were evaluated using Vinci software version 2 (ISS, Baltimore, MD, USA) and correlated to the utilized optical configuration.
The kinetics of the incorporation of compounds into liposome membrane models were determined using steady-state fluorescence spectroscopy at a constant excitation and emission wavelength, according to the corresponding sample excitation and emission maxima. We added 50 μL of LNP suspension to 10 µM of the analyte in PBS and monitored the increase in fluorescence intensity over the time range […].

The next data set relates to PS cells. Description: Confocal microscopy of penetration into cellular membranes. It is filed as cell-based, porcine. The following applies: 10 µM. On the procedure:
Confocal microscopy was used to study the penetration of compound 3a into cellular membranes. PS cells were treated with 3a (10 µM) in a µ-Slide 8 Well (IbidiGmbH, Gräfelfing, Germany) in the dark for 60 min at 37 °C. The samples were analyzed for fluorescent signal distribution and intensity using a Leica SP8 confocal microscope (Leica, Wetzlar, Germany) as described previously.

Data set [7] is described as follows: Cytotoxicity to CRFK cells under normal lighting. It counts as cell-based. The following applies: cat (Felis catus), CRFK cells (kidney cortex), confluent monolayer. On the procedure: Furthermore, we investigated the mechanism of antiviral activity of perylenylethynylphenols using FIPV, another member of the Coronaviridae family, which is an important veterinary pathogen.
To determine the light-induced cytotoxicity of the compounds, CRFK cells were cultured in 96-well plates for 24 h to form a confluent monolayer and then treated with the tested compounds at concentrations ranging from 0 to 10 µM in daylight. Subsequently, cells treated with the compounds were irradiated with LEDs (465–480 nm, 30 mW/cm^2) for 10 min at RT (Figure 7A, top panel). As a negative control, CRFK cells were treated with the compounds in daylight and then incubated in the dark at RT for 10 min (Figure 7A, bottom panel). Subsequently, both irradiated and non-irradiated cell monolayers were incubated for 48 h in the dark at 37 °C. After incubation, the potential photocytotoxicity of the compounds was determined using Cell Counting Kit-8 (Dojindo Molecular Technologies, Munich, Germany) according to the manufacturer’s instructions.

Data set [8] deals with FIPV. Kind of data set: Anti-FIPV activity in CRFK cells (plaque assay). It is filed as cell-based, feline infectious peritonitis virus. The following applies: Alphacoronavirus 1, normal lighting (preparation in daylight, cultivation in the dark).
Data set [9] can be described thus: Light-induced cytotoxicity (photocytotoxicity). It is filed as cell-based. Particulars: cat (Felis catus), CRFK cells, confluent monolayer; blue light 465–480 nm, 30 mW/cm^2, 10 min; then 48 h incubation; read-out: Cell viability of irradiated CRFK cells.
Details of data set [10]: method as in PMID 37339718. The following applies: in methanol; cited from earlier work.
The mark [11] stands for this setting: SARS-CoV-2 in Vero cells, normalized log-transformed response, read-out: App. EC50, calculated from log-transformed viral titers (converted).
[12] abbreviates: Vero cells, MOI 0.1, 48 h p.i., normal lighting, 50% reduction in viral titer, read-out: SARS-CoV-2 EC50.

A word on the EC50: it is the concentration that produces a half-maximal response. The term CC50 denotes the concentration at which the toxic effect on the cells reaches its halfway point. A high value points to lower toxicity to the cells. As to `Oc1ccc(C#Cc2ccc3c4cccc5cccc(c6cccc2c63)c54)cc1` [Compound 3a, 4-(Perylen-3-ylethynyl)phenol], in the data set on SARS-CoV-2 [1], the “Decrease in SARS-CoV-2 viral titer compared with control” value is given as “more than two orders of magnitude”. Further, in data set [2], the “ϕΔ(1O2), singlet oxygen generation quantum yield” value is given as 0.422. Moreover, the “anti-FIPV activity under red light” value in the data set with FIPV [3] (dark room, all manipulations under red light (624 ± 20 nm), up to 10 µM) was “completely disappeared”. In addition, the “anti-FIPV (virus inactivation) activity after blue-light irradiation” value in the data set with FIPV [3] (mixed in daylight, blue light 465–480 nm, 30 mW/cm^2, 10 min, versus non-irradiated sample) is “significant increase in anti-FIPV activity”. The “FIPV-inactivation activity in the non-irradiated sample” value in the data set on FIPV [3] (mixed in daylight, incubated in the dark 10 min, then 1 h at 37 °C) is reported as “some FIPV-inactivation activity”. The SI with SARS-CoV-2 [4] is listed as above 83. For the same compound, the results for the EC50 in the data set with SARS-CoV-2 [4] (setting [11]), in the data set on SARS-CoV-2 [4] (setting [12]) and in the data set on FIPV [8] were 1790 nM, 120 nM and 196 nM, respectively. For the same compound, the CC50 at 48 h in data set [5] and in [7] was above 10000 nM throughout. Further, the “Maximal steady-state fluorescence intensity on liposome penetration” value in data set [6] is listed as “about 4 × 10^5 CPE”. Also, the “Cytotoxicity or morphological abnormalities in PS cells” value in the data set on PS cells is reported as “no signs of cytotoxicity or morphological abnormalities”.
What is called viability is the share of living cells, or the viability signal relative to a control. With `Oc1cccc(C#Cc2ccc3c4cccc5cccc(c6cccc2c63)c54)c1` [Compound 3b, 3-(Perylen-3-ylethynyl)phenol], in [2], the “ϕΔ(1O2), singlet oxygen generation quantum yield” value turned out to be 0.451. For the same compound, the SI in the data set with SARS-CoV-2 [4] is above 196. Also, the 50% effective concentration (EC50) is 506 nM in the data set with SARS-CoV-2 [4] (setting [11]) and 51.1 nM with SARS-CoV-2 [4] (setting [12]). In [5], the CC50 at 48 h is above 10000 nM. Also, the viability at 48 h in data set [9] is above 100%.
For the compound `Oc1ccc(C#Cc2ccc3c4cccc5cccc(c6cccc2c63)c54)cc1Br` [Compound 3c, 4-(Perylen-3-ylethynyl)-2-bromophenol], the “ϕΔ(1O2), singlet oxygen generation quantum yield” value in data set [2] turned out to be 0.282. The compound further showed an SI in the data set with SARS-CoV-2 [4] above 44. Also, the EC50 in the data set on SARS-CoV-2 [4] (setting [11]) is 1100 nM; with SARS-CoV-2 [4] (setting [12]), 227 nM. Further, in data set [5], the CC50 at 48 h was above 10000 nM.
In the case of `Oc1ccc(C#Cc2cc3cccc4c5cccc6cccc(c(c2)c34)c65)cc1` [Compound 3d, 4-(Perylen-2-ylethynyl)phenol], the “ϕΔ(1O2), singlet oxygen generation quantum yield” value in data set [2] stood at 0.297. This compound showed an SI in the data set on SARS-CoV-2 [4] above 16. In addition, the EC50 was 2220 nM in the data set on SARS-CoV-2 [4] (setting [11]) and 614 nM in the data set with SARS-CoV-2 [4] (setting [12]). In addition, the CC50 at 48 h in data set [5] is above 10000 nM.
With `Oc1cccc(C#Cc2cc3cccc4c5cccc6cccc(c(c2)c34)c65)c1` [Compound 3e, 3-(Perylen-2-ylethynyl)phenol], in data set [2], the “ϕΔ(1O2), singlet oxygen generation quantum yield” value is 0.460. This compound also came in with an SI with SARS-CoV-2 [4] above 29. The EC50 in the data set on SARS-CoV-2 [4] (setting [11]) was 1580 nM; in the data set with SARS-CoV-2 [4] (setting [12]), 347 nM. In [5], this compound showed a CC50 at 48 h above 10000 nM. For the same compound, in [9], the viability at 48 h was above 100%.
On to `Oc1ccc(C#Cc2cc3cccc4c5cccc6cccc(c(c2)c34)c65)cc1Br` [Compound 3f, 4-(Perylen-2-ylethynyl)-2-bromophenol], for which the “ϕΔ(1O2), singlet oxygen generation quantum yield” value in data set [2] is on record as 0.332. The compound also displayed an SI in the data set on SARS-CoV-2 [4] above 19. Besides, the EC50 was 2680 nM in the data set with SARS-CoV-2 [4] (setting [11]) and 529 nM in the data set on SARS-CoV-2 [4] (setting [12]). This compound displayed a CC50 at 48 h in [5] above 10000 nM.
For `O=C(O)c1ccc(-c2ccc3c4cccc5cccc(c6cccc2c63)c54)s1` [Compound C1T11], in [10], the “φΔ0, singlet oxygen generation quantum yield of the reference PS” value is reported as 0.59.
